{
  "source": "ChEMBL document CHEMBL1201862",
  "about": "“PubChem BioAssay data set” (2004)",
  "format_in_all_cases": "functional",
  "key": {"[1]": {"target": "Mothers against decapentaplegic homolog 3 (Homo sapiens, UniProt P84022)", "sequence (P84022 whole entry)": "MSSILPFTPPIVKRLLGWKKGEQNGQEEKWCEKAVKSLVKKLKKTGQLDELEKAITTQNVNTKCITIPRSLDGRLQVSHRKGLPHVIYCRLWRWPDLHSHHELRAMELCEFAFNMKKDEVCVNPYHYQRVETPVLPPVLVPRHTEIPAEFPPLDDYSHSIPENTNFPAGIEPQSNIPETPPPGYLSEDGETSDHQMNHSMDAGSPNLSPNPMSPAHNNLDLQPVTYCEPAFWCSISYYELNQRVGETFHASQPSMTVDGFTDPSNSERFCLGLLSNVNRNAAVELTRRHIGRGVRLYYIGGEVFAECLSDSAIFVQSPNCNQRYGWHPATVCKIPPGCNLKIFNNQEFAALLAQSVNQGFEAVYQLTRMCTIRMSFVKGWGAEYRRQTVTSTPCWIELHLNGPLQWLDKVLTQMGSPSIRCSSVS", "experiment": "Smad3 binding inhibitors, lysate ELISA, dose response, cell lysate, secondary confirmation, chemiluminescent ELISA, HEK293 lysate (AID 1058)"}, "HEK293": {"tested_on": "HEK293", "experiment": "Fluorescence-based counterscreen for potentiators or agonists of NPY-Y2: cell-based high-throughput dose response assay to identify inhibitors of cyclic nucleotide gated ion channel (CNGC) activity. In this assay, the parental HEK293 cell line transfected with a cyclic-nucleotide gated ion channel (CNGC)-based cAMP sensor is used to measure inhibition of isoproterenol-induced CNGC activity by test compound.", "settings": "Homo sapiens"}, "[2]": {"target": "T1, Neuropeptide Y receptor type 2 (Homo sapiens, UniProt P49146)", "T1 sequence (P49146 whole entry)": "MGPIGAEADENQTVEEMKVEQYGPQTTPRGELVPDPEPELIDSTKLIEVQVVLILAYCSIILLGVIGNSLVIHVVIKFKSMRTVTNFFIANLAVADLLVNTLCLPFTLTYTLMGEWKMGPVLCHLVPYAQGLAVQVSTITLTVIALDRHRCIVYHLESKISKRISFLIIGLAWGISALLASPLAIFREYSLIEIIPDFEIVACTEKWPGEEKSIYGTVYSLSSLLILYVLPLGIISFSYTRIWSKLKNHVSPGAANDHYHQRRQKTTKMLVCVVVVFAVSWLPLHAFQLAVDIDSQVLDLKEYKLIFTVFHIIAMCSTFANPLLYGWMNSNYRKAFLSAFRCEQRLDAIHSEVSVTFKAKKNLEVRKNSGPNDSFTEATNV", "experiment": "Fluorescence-based cell-based high-throughput dose response assay for agonists of NPY-Y2. [Related pubchem assays: 1703 (Screening assay (CNGC inhibitors).), 1359 (Screening assay (NPY-Y2 potentiators or agonists).), 1304 (Screening assay (NPY-Y1 potentiators or agonists).), 1710 (Screening assay (NPY-Y2 agonists).), 1791 (Summary AID.)]"}, "[3]": {"target": "T2, Neuropeptide Y receptor type 1 (Homo sapiens, UniProt P25929)", "T2 sequence (P25929 whole entry)": "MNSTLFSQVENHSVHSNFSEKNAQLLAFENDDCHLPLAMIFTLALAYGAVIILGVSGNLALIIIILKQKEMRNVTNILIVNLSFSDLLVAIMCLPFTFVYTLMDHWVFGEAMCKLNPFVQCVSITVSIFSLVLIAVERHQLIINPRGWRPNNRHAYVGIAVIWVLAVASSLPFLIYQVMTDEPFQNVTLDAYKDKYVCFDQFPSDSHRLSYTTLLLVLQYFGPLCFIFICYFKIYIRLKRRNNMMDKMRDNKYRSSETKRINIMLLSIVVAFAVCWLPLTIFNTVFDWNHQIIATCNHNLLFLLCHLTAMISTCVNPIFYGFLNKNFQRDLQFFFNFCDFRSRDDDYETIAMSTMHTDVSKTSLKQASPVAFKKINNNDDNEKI", "experiment": "Fluorescence-based counterscreen for agonists of NPY-Y2: cell-based high-throughput dose response assay for agonists of NPY-Y1."}, "[4]": {"target": "Lysosomal acid glucosylceramidase (Homo sapiens, UniProt P04062)", "sequence (P04062 whole entry)": "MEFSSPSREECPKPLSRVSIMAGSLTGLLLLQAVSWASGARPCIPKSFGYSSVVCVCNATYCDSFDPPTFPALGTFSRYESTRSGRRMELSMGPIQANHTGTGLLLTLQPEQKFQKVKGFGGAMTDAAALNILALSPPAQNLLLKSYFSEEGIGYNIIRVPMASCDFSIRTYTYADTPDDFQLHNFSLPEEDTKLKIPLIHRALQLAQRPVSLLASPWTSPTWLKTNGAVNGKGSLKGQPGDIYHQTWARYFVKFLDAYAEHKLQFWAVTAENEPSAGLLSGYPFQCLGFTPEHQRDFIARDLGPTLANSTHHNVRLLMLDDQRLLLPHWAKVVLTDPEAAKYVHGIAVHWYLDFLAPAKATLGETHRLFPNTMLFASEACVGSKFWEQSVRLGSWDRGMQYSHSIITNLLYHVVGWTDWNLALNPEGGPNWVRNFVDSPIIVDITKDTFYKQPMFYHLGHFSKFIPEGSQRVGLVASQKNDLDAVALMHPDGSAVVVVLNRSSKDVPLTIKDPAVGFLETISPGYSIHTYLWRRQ", "experiment": "Dose response cell-based high throughput screening assay to identify enhancers of beta-glucosidase activity. [Related pubchem assays: 784 ]"}, "[5]": {"target": "Voltage-gated N-type calcium channel alpha-1B subunit/Amyloid beta A4 precursor protein-binding family A member 1 (Homo sapiens, UniProt Q00975+Q02410)", "experiment": "disruptors of Mint-PDZ/N-type channel peptide interaction – biochemical, HTRF, set 2, SAR follow-up (AID 434980)"}, "[6]": {"target": "T3, Eukaryotic translation initiation factor 2-alpha kinase 3 (Homo sapiens, UniProt Q9NZJ5)", "T3 sequence (Q9NZJ5 whole entry)": "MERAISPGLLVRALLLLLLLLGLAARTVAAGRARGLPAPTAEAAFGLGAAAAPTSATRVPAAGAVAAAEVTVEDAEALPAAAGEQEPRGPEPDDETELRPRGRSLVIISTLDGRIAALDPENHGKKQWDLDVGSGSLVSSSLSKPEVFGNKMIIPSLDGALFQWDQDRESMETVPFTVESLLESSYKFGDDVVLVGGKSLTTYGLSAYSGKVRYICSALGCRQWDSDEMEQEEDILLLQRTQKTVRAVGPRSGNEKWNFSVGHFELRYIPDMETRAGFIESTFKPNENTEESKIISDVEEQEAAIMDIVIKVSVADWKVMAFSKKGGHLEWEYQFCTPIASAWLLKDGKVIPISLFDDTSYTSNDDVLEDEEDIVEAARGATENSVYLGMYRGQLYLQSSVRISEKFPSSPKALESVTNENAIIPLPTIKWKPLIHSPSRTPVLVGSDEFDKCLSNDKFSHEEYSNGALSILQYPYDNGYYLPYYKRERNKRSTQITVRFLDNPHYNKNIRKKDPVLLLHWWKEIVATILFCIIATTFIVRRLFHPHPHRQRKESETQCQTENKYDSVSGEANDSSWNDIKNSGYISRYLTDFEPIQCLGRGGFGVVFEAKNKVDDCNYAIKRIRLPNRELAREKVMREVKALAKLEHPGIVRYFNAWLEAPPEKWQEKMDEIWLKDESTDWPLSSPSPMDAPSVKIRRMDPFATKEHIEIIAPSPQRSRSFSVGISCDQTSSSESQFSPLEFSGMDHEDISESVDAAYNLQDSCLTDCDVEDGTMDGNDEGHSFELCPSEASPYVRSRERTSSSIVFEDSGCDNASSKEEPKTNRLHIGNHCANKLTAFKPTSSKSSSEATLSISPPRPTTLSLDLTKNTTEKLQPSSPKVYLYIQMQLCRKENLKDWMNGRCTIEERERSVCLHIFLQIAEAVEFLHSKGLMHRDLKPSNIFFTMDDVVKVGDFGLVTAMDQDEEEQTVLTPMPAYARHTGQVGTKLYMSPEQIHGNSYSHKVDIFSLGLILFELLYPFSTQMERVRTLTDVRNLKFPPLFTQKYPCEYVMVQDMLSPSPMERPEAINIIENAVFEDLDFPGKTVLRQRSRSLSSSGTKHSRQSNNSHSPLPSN", "experiment": "Dose response cell-based high-throughput screening assay to measure PERK inhibition. [Related pubchem assays: 1416 ]"}, "[7]": {"target": "T3, Eukaryotic translation initiation factor 2-alpha kinase 3", "experiment": "Counterscreen assay for PERK inhibitors: Dose response cell-based high throughput screening assay to measure inhibition of PERK at 6 hours. [Related pubchem assays: 1522, 1416 ]"}},
  "note": "Activity calls are given as the source filed them.",
  "data": [
    {"smiles": "COc1cccc(C(c2cc3c(cc2O)OCO3)N2CCOCC2)c1O", "note": "(stereo not drawn)", "values": [
      {"measurement": "IC50", "setting": "[1]", "result": "> 40 µM (not active)"}
    ]},
    {"smiles": "CC1=NC(=O)C(N=Nc2ccccc2C(=O)O)N1c1ccccc1", "note": "(stereo not drawn)", "values": [
      {"measurement": "EC50", "setting": "HEK293", "result": "> 3.94 µM (active)"},
      {"measurement": "EC50", "setting": "[2]", "result": "16.9 µM (not active)"},
      {"measurement": "EC50", "setting": "[3]", "result": "9.92 µM (active)"}
    ]},
    {"smiles": "CC(C)CCn1nnnc1C(c1ccccc1)N1CCC(C(N)=O)CC1", "note": "(stereo not drawn)", "values": [
      {"measurement": "EC50", "setting": "[4]", "result": "> 10 µM (not active)"}
    ]},
    {"smiles": "CN(C)CCNC(=O)c1cc(-c2ccco2)nc2ccccc12", "values": [
      {"measurement": "IC50", "setting": "[5]", "result": "> 56.8 µM (inactive)"}
    ]},
    {"smiles": "CCN1CC(=O)Nc2cc(S(=O)(=O)N3CCOCC3)ccc21", "values": [
      {"measurement": "EC50", "setting": "[6]", "result": "> 55.7 µM (not active)"},
      {"measurement": "EC50", "setting": "[7]", "result": "> 55.7 µM (not active)"}
    ]}
  ]
}
